Data from patent publication US8329738B2, “Use of AMPK-activating imidazole derivatives, preparation process therefor and pharmaceutical compositions comprising them” (Merck Patent Gesellschaft mit Beschränkter Haftung, priority 2006, dated 2012).

Test system: AMPK
Assay: AMPK activation: phosphorylation of peptide AMARAA, Delfia protocol
Format: biochemical
Conditions: relative to the basal activity (100%) obtained in the absence of AMP, partially purified AMPK from rat liver
Method: 25 mU of AMPK are incubated in the presence of different concentrations of AMP or of products, for 30 minutes at 30° C., in a final volume of 30 μl comprising 50 mM Hepes, 19 mM MgCl2, 125 μM ATP, 5 mM NaPPi, 1 mM EDTA, 1 mM DTT, 2 mM Na3VO4 and 25 μM of peptide AMARAA biotinyl (Biot-NH-AMARAASAAALARRR-COOH).
The phosphorylation of the peptide AMARAA is then measured according to a Delfia protocol (Perkin-Elmer), using a europium-labelled anti-phospho-serine specific antibody.
The AMPK used in this test is a partially purified protein from rat liver.
The percentage of activation is calculated relative to the basal activity (100%) obtained in the absence of AMP.

Point of comparison: NC(=O)c1c(O)ncn1Cc1ccc(NC(=O)Nc2ccc(Cl)cc2)cc1 [Example 44, 5-hydroxy-3-{4-[3-(4-chlorophenyl)ureido]benzyl}-3H-imidazole-4-carboxamide], “% Activation at 200 μM” value 147%. Against it:
- COc1ccc(NC(=O)Nc2ccc(Cn3cnc(O)c3C(N)=O)cc2)cc1 [Example 43, 5-hydroxy-3-{4-[3-(4-methoxyphenyl)ureido]benzyl}-3H-imidazole-4-carboxamide] — higher, 229%
- NC(=O)c1c(O)ncn1Cc1ccc(NC(=O)Nc2cccc3ccccc23)cc1 [Example 47, 5-hydroxy-3-[4-(3-naphthalen-1-ylureido)benzyl]-3H-imidazole-4-carboxamide] — higher, 184%
- CCc1ccc(NC(=O)Nc2ccc(Cn3cnc(O)c3C(N)=O)cc2)cc1 [Example 56, 5-hydroxy-3-{4-[3-(4-ethylphenyl)ureido]benzyl}-3H-imidazole-4-carboxamide] — higher, 289%
- CSc1ccc(NC(=O)Nc2ccc(Cn3cnc(O)c3C(N)=O)cc2)cc1 [Example 58, 5-hydroxy-3-{4-[3-(4-methylsulfanylphenyl)ureido]benzyl}-3H-imidazole-4-carboxamide] — higher, 311%

Test system: not given
Assay: not given
Conditions: not given

Point of comparison: N#Cc1ccc(OCCn2cnc(C(N)=O)c2O)cc1 [Example 3, 1-[2-(4-cyanophenoxy)ethyl]-5-hydroxy-1H-imidazole-4-carboxamide], melting point 190 °C. Against it:
- NC(=O)c1ncn(CCOc2ccc(F)cc2)c1O [Example 1, 1-[2-(4-fluorophenoxy)ethyl]-5-hydroxy-1H-imidazole-4-carboxamide] — higher, 204 °C
- NC(=O)c1ncn(CCOc2ccccc2)c1O [Example 2, 5-hydroxy-1-(2-phenoxyethyl)-1H-imidazole-4-carboxamide] — higher, 192 °C
- COC(=O)c1ccc(OCCn2cnc(C(N)=O)c2O)cc1 [Example 4, methyl 4-[2-(4-carbamoyl-5-hydroxyimidazol-1-yl)ethoxy]benzoate] — the same, 190 °C
- CCOC(=O)c1ncn(CCOc2ccc(C#N)cc2)c1O [Example 6, ethyl 5-hydroxy-1-[2-(-4-cyanophenoxy)ethyl]-1H-imidazole-4-carboxylate] — the same, 190 °C
- CCOC(=O)c1ncn(CCOc2ccc(F)cc2)c1O [Example 7, ethyl 5-hydroxy-1-[2-(-4-fluorophenoxy)ethyl]-1H-imidazole-4-carboxylate] — higher, 200 °C
- CCOC(=O)c1ncn(CCOc2ccc(C(=O)OC)cc2)c1O [Example 8, ethyl 5-hydroxy-1-{2-[-4(methoxycarbonyl)phenoxy]ethyl}-1H-imidazole-4-carboxylate] — higher, 202 °C
- CCOC(=O)c1ncn(Cc2ccccc2)c1OC [Example 9, ethyl 1-benzyl-5-methoxy-1H-imidazole-4-carboxylate] — lower, 150 to 153 °C
- NC(=O)c1c(O)ncn1Cc1ccc(F)cc1 [Example 10, 5-hydroxy-3-(4-fluorobenzyl)imidazole-4-carboxamide] — higher, 230 to 234 °C
- NC(=O)c1c(O)ncn1Cc1ccc(Cl)cc1 [Example 11, 5-hydroxy-3(4-chlorobenzyl)imidazole 4-carboxamide] — higher, 206 to 212 °C
- CCOC(=O)c1ccc(Cn2cnc(O)c2C(N)=O)cc1 [Example 12, 5-hydroxy-3-[4-(ethoxycarbonyl)benzyl]imidazole-4-carboxamide] — higher, 266 to 268 °C
- NC(=O)c1c(O)ncn1-c1ccccc1 [Example 13, 5-hydroxy-3-phenylimidazole-4-carboxamide] — lower, 182 °C
- NC(=O)c1c(O)ncn1CCOc1ccc(F)cc1 [Example 15, 3-[2-(4-fluorophenoxy)ethyl]-5-hydroxy-3H-imidazole-4-carboxamide] — higher, 230 °C
- N#Cc1ccc(OCCn2cnc(O)c2C(N)=O)cc1 [Example 16, 3-[2-(4-cyanophenoxy)ethyl]-5-hydroxy-3H-imidazole-4-carboxamide] — higher, 264 °C
- COC(=O)c1ccc(OCCn2cnc(O)c2C(N)=O)cc1 [Example 16b is, methyl 4-[2-(5-carbamoyl-4-hydroxyimidazol-1-yl)ethoxy]-benzoate] — higher, 263 °C
- NC(=O)c1c(O)ncn1Cc1ccc(N)cc1 [Example 18, 3-(4-aminobenzyl)-5-hydroxy-3H-imidazole-4-carboxamide] — higher, 230 to 231 °C
- COc1ncn(Cc2ccc([N+](=O)[O-])cc2)c1C(N)=O [Example 19, 3-(4-nitrobenzyl)-5-methoxy-3H-imidazole-4-carboxamide] — higher, 201 to 203 °C
- NC(=O)c1c(OCc2ccccc2)ncn1Cc1ccc([N+](=O)[O-])cc1 [Example 20, 3-(4-nitrobenzyl)-5-benzyloxy-3H-imidazole-4-carboxamide] — higher, 193 to 195 °C
- COc1cccc(C(=O)Nc2ccc(Cn3cnc(O)c3C(N)=O)cc2)c1 [Example 21, 5-hydroxy-3-[4-(3-methoxybenzoylamino)benzyl]-3H-imidazole-4-carboxamide] — higher, 257 to 259 °C
- NC(=O)c1c(O)ncn1Cc1ccc(NC(=O)Nc2ccccc2)cc1 [Example 41, 5-hydroxy-3-[4-(3-phenylureido)benzyl]-3H-imidazole-4-carboxamide] — higher, 232 to 235 °C
- NC(=O)Nc1ccc(Cn2cnc(O)c2C(N)=O)cc1 [Example 42, 5-hydroxy-3-[4-ureidobenzyl]-3H-imidazole-4-carboxamide] — higher, 243 to 244 °C
- NC(=O)c1c(O)ncn1Cc1ccc(NC(=O)Nc2cccc(C(=O)O)c2)cc1 [Example 70, 3-{3-[4-(5-carbamoyl-4-hydroxyimidazol-1-ylmethyl)phenyl]ureido}benzoic acid] — higher, 218 to 220 °C
